We go through five molecules from ChEMBL document CHEMBL4376887, “Rose Bengal-Amphiphilic Peptide Conjugate for Enhanced Photodynamic Therapy of Malignant Melanoma” (J Med Chem, 2020).

Calls of active or inactive are those of the source. No cut-off for these calls is given here.

In series [1] the test system is B16-F10-luc2. The series can be described thus: Photo-activated cytotoxicity against mouse B16-F10-luc2 cells assessed as cell viability at 1 uM preincubated for 3 hrs followed by compound washout and subsequent 22.8 J cm'-2 light irradiation for 60 secs measured after 21 hrs by MTT assay relative to control. The class given is functional. Conditions: B16-F10-luc2, light or radiation study, read-out: Activity.

Series [2] in a line: Induction of ROS generation in ethanol assessed as reduction in DPBF absorbance at 410 nm at 1 uM preincubated for 10 mins followed by 342 J cm'-2 light irradiation for 15 mins and measured at 5 mins interval for 15 mins by spectrometric method. It counts as functional.
In series [3] the test system is B16-F10-luc2. Briefly: Antitumor activity against mouse B16-F10-luc2 cells implanted in SCID mouse assessed as tumor volume at 100 uM, iv administered 30 mins prior to 68.4 J cm'-2 light irradiation for 3 mins on day 1, 2, 7, and 9 measured for 12 days relative to control. It counts as functional.
Series [4] deals with B16-F10-luc2. Briefly: Antitumor activity against mouse B16-F10-luc2 cells implanted in SCID mouse assessed as reduction in tumor growth at 100 uM, iv administered 30 mins prior to 68.4 J cm'-2 light irradiation for 3 mins on day 1, 2, 7, and 9 measured on day 13. The class given is functional, organism-based.
Series [5] concerns MCF7. Briefly: Cytotoxicity against human MCF7 cells assessed as reduction in cell viability up to 1 uM incubated for 24 hrs under dark condition by MTT assay. It counts as cell-based. Particulars: mcf7, 24 h. A general note: Tetrazolium dyes change colour on reduction, which living cells bring about.
Series [6] has as its system PANC-1. The series can be described thus: Cytotoxicity against human PANC1 cells assessed as reduction in cell viability up to 1 uM incubated for 24 hrs under dark condition by MTT assay. It counts as cell-based. Conditions: panc-1, 24 h.
Series [7] is described as follows: Cytotoxicity against mouse B16-F10-luc2 cells assessed as cell viability at 1 uM incubated for 24 hrs under dark condition by MTT assay relative to control. It counts as cell-based. Particulars: read-out: Activity.
Series [8] deals with HeLa. The series can be described thus: Photo-activated cytotoxicity against human HeLa cells assessed as reduction in cell viability preincubated for 4 hrs followed by compound washout and subsequent 3.3 mW cm'-2 light irradiation for 24 mins measured after 48 hrs by MTT assay. It counts as functional, cell-based. Particulars: light or radiation study.
Series [9] relates to B16-F10-luc2. Briefly: Photo-activated cytotoxicity against mouse B16-F10-luc2 cells assessed as reduction in cell viability preincubated for 3 hrs followed by compound washout and subsequent 22.8 J cm'-2 light irradiation for 60 secs measured after 21 hrs by MTT assay. Conditions: B16-F10-luc2, light or radiation study. It counts as functional, cell-based.
Series [10] relates to B16-F10-luc2. Briefly: Induction of apoptosis in mouse B16-F10-luc2 cells assessed as decrease in viable cells at 1 uM preincubated for 3 hrs followed by compound washout and subsequent 22.8 J cm'-2 light irradiation for 60 secs measured after 21 hrs by Alexa Fluor 488 Annexin V/Dead Cell staining based flow cytometry. It counts as functional.
Series [11] has as its system B16-F10-luc2. Briefly: Induction of apoptosis in mouse B16-F10-luc2 cells assessed as increase in late apoptotic cells at 1 uM preincubated for 3 hrs followed by compound washout and subsequent 22.8 J cm'-2 light irradiation for 60 secs measured after 21 hrs by Alexa Fluor 488 Annexin V/Dead Cell staining based flow cytometry. It counts as functional.
In series [12] the test system is B16-F10-luc2. Briefly: Induction of apoptosis in mouse B16-F10-luc2 cells assessed as increase in necrotic cells at 1 uM preincubated for 3 hrs followed by compound washout and subsequent 22.8 J cm'-2 light irradiation for 60 secs measured after 21 hrs by Alexa Fluor 488 Annexin V/Dead Cell staining based flow cytometry. The class given is functional. For orientation: A flow cytometer gives signals particle by particle.

The test system of series [13] is B16-F10-luc2. Briefly: Induction of apoptosis in mouse B16-F10-luc2 cells assessed as decrease in viable cells at 1 uM measured after 24 hrs by Alexa Fluor 488 Annexin V/Dead Cell staining based flow cytometry. The class given is functional.
Series [14] concerns B16-F10-luc2. The series can be described thus: Induction of apoptosis in mouse B16-F10-luc2 cells assessed as increase in late apoptotic cells at 1 uM measured after 24 hrs by Alexa Fluor 488 Annexin V/Dead Cell staining based flow cytometry. It counts as functional.
Series [15] has as its system B16-F10-luc2. The series can be described thus: Induction of apoptosis in mouse B16-F10-luc2 cells assessed as increase in necrotic cells at 1 uM measured after 24 hrs by Alexa Fluor 488 Annexin V/Dead Cell staining based flow cytometry. It counts as functional.
Series [16] is described as follows: Induction of singlet oxygen generation in ethanol at 1 uM preincubated for 10 mins followed by 342 J cm'-2 light irradiation for 15 mins and measured at 5 mins interval for 15 mins by spectrometric method. It counts as functional.
For series [17], the system named is B16-F10-luc2. Briefly: Induction of reactive oxygen species generation in mouse B16-F10-luc2 cells at 10 uM preincubated for 3 hrs followed by compound washout prior to […] addition for 1 hr and subsequent 22.8 J cm'-2 light irradiation for 60 secs post media washout and measured immediately by fluorescence assay. It counts as functional, cell-based.
Series [18] concerns B16-F10-luc2. The series can be described thus: Antitumor activity against mouse B16-F10-luc2 cells implanted in SCID mouse assessed as tumor growth at 100 uM, iv administered on day 1, 2, 7, and 9 measured for 12 days relative to control. The class given is functional.
In series [19] the test system is B16-F10-luc2. The series can be described thus: Antitumor activity against mouse B16-F10-luc2 cells implanted in SCID mouse assessed as tumor growth at 100 uM, iv administered 30 mins prior to 68.4 J cm'-2 light irradiation for 3 mins on day 1, 2, 7, and 9 measured for 12 days relative to control. It counts as functional.
Series [20] can be described thus: Toxicity in mouse B16-F10-luc2 cells implanted SCID mouse assessed as effect on body weight at 100 uM, iv administered 30 mins prior to 68.4 J cm'-2 light irradiation for 3 mins on day 1, 2, 7, and 9. The class given is organism-based. Particulars: in vivo, 0.05 h.
Series [21] can be described thus: Acute toxicity in mouse B16-F10-luc2 cells implanted SCID mouse at 100 uM, iv administered 30 mins prior to 68.4 J cm'-2 light irradiation for 3 mins on day 1, 2, 7, and 9. The class given is organism-based. Conditions: in vivo, 0.05 h.
In series [22] the test system is MCF7. Briefly: Photo-activated cytotoxicity against human MCF7 cells assessed as reduction in cell viability up to 1 uM preincubated for 3 hrs followed by compound washout and subsequent 22.8 J cm'-2 light irradiation for 60 secs measured after 21 hrs by MTT assay. The class given is functional, cell-based.
Series [23] concerns PANC-1. Briefly: Photo-activated cytotoxicity against human PANC1 cells assessed as reduction in cell viability up to 1 uM preincubated for 3 hrs followed by compound washout and subsequent 22.8 J cm'-2 light irradiation for 60 secs measured after 21 hrs by MTT assay. It counts as functional, cell-based.
For series [24], the system named is HeLa. The series can be described thus: Photo-activated cytotoxicity against human HeLa cells assessed as reduction in cell viability preincubated for 3 hrs followed by compound washout and subsequent 22.8 J cm'-2 light irradiation for 60 secs measured after 21 hrs by MTT assay. Particulars: light or radiation study. It counts as functional, cell-based.
The nature of series [25]: Drug uptake in mouse B16-F10-luc2 cells assessed as increase in fluorescence intensity at 10 uM measured after 3 hrs by confocal laser scanning microscopic analysis relative to RB. The class given is ADME, cell-based. Conditions: b16-f10-luc2, 3 h.

Regarding `O=C([O-])c1c(Cl)c(Cl)c(Cl)c(Cl)c1-c1c2cc(I)c(=O)c(I)c-2oc2c(I)c([O-])c(I)cc12.[Na+].[Na+]` [ROSE BENGAL SODIUM], the viability at 1 µM in series [1] came out at 69%. In addition, the outcome in series [2] and in series [4] was Active. In addition, the Activity in series [3] was 502%; in [5], “Active”; in series [6], “Active”.

In the case of `C=Cc1c(C)c2cc3[nH]c(cc4nc(cc5nc(cc1[nH]2)C(C)=C5CCC(=O)N[C@@H](CS)C(=O)N[C@@H](CCCCN)C(=O)N[C@@H](CC(C)C)C(=O)N[C@@H](C)C(=O)N[C@@H](CCCCN)C(=O)N[C@@H](CC(C)C)C(=O)N[C@@H](C)C(=O)N[C@@H](CCCCN)C(=O)N[C@@H](CCCCN)C(=O)N[C@@H](CC(C)C)C(=O)N[C@@H](C)C(=O)N[C@@H](CCCCN)C(=O)N[C@@H](CC(C)C)C(=O)N[C@@H](C)C(=O)N[C@@H](CCCCN)C(N)=O)C(CCC(=O)O)=C4C)c(C)c3C=C`, the viability at 1 µM in [1] is 38%. For the same molecule, the viability at 24 h, 1 µM in series [7] turned out to be 46%.

What is called IC50 is the point on the concentration scale where inhibition reaches its midpoint. With `C=Cc1c(C)c2cc3[nH]c(cc4nc(cc5nc(cc1[nH]2)C(C)=C5CCC(=O)O)C(CCC(=O)O)=C4C)c(C)c3C=C`, in series [8], the IC50 was determined as 1610 nM.

For `CC(C)C[C@H](NC(=O)[C@H](CCCCN)NC(=O)[C@H](C)NC(=O)[C@H](CC(C)C)NC(=O)[C@H](CCCCN)NC(=O)[C@H](CCCCN)NC(=O)[C@H](C)NC(=O)[C@H](CC(C)C)NC(=O)[C@H](CCCCN)NC(=O)[C@H](C)NC(=O)[C@H](CC(C)C)NC(=O)[C@H](CCCCN)NC(=O)[C@H](CS)NC(=O)CCCCCCCOC(=O)c1c(Cl)c(Cl)c(Cl)c(Cl)c1-c1c2cc(I)c(=O)c(I)c-2oc2c(I)c(O)c(I)cc12)C(=O)N[C@@H](C)C(=O)N[C@@H](CCCCN)C(N)=O`, the viability at 1 µM in series [1] amounted to 6%. In addition, the viability at 24 h, 1 µM in series [7] stood at 69%. Also, the results for the IC50 in series [9] and in series [24] were 310 nM and 290 nM, respectively. The outcome in series [10], in series [11], in [12], in [13], in [14] and in series [15] was Active. The outcome in series [2], in [16], in series [17], in series [4], in series [22] and in series [23] was Active. Also, the Activity in series [18] is 573%; in series [19], 23%; in series [20] it was “Non-Toxic”; in [21], “Non-Toxic”; in [5] it was “Active”; in series [6], “Active”. Moreover, the Drug uptake in series [25] is on record as 69%.

For `O=C(O)CCCCCCCOC(=O)c1c(Cl)c(Cl)c(Cl)c(Cl)c1-c1c2cc(I)c(=O)c(I)c-2oc2c(I)c(O)c(I)cc12`, the viability at 1 µM in series [1] came out at 62%. Besides, the outcome in [2] and in series [16] was Active.
